For one assay, the target named is T1, Atg7 (Homo sapiens, UniProt O95352).
T1 sequence (O95352 1-703): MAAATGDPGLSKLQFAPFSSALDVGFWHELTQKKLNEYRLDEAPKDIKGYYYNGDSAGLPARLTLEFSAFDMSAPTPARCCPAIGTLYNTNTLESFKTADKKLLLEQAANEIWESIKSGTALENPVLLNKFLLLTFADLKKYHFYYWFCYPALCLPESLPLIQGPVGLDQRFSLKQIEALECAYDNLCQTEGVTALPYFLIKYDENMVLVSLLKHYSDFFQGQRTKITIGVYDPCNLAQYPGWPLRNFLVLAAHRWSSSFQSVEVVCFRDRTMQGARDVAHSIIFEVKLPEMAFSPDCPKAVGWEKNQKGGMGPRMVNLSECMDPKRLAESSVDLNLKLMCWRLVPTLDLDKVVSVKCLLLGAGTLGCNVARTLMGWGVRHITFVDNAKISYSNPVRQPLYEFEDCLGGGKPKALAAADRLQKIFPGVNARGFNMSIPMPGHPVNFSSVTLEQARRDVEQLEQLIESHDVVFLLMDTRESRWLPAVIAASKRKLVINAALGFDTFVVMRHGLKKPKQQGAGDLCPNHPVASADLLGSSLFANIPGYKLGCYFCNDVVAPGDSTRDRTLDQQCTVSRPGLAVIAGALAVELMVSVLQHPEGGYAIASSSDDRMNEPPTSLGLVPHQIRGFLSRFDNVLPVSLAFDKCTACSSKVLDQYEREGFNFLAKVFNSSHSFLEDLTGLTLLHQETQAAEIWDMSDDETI
Briefly: Atg7 activating enzyme (E1) inhibition. It is filed as biochemical. The following applies: 25 uM compound, 60 min preincubation; read-out: Atg7 percent inhibition of adduct formation. The method, then: (§1) Compounds are evaluated for their inhibitory effect on activating enzymes (E1) of ubiquitin, SUMO, Nedd8, Urm1, ISG15 or Atg7 using previously reported methods and protocols. One example is in: Allosteric inhibition of ubiquitin-like modifications by a class of inhibitor of SUMO-activating enzyme. Cell Chemical Biology, 26, 1-11, 2019. PMID: 28051857.
(§2) Compounds are tested in the following manner. The compound and SUMO E1 are incubated for a predetermined amount of time. UBC9, SUMO1, and ATP are added to the E1-compound mixture and incubated at 37° C. The reaction is quenched with Laemmli Buffer. The UBC9-SUMO1 conjugation is analyzed via SDS gel electrophoresis. The percent inhibition is measured by the intensity of the UBC9-SUMO1 band compared to the no compound control. Activities are listed as compound concentration (uM), preincubation time of E1 with compound (min), and percent inhibition of adduct formation (%). […]

For a further assay, the target named is T2, SUMO E1 (Homo sapiens, UniProt Q9UBT2).
T2 sequence (Q9UBT2 1-640): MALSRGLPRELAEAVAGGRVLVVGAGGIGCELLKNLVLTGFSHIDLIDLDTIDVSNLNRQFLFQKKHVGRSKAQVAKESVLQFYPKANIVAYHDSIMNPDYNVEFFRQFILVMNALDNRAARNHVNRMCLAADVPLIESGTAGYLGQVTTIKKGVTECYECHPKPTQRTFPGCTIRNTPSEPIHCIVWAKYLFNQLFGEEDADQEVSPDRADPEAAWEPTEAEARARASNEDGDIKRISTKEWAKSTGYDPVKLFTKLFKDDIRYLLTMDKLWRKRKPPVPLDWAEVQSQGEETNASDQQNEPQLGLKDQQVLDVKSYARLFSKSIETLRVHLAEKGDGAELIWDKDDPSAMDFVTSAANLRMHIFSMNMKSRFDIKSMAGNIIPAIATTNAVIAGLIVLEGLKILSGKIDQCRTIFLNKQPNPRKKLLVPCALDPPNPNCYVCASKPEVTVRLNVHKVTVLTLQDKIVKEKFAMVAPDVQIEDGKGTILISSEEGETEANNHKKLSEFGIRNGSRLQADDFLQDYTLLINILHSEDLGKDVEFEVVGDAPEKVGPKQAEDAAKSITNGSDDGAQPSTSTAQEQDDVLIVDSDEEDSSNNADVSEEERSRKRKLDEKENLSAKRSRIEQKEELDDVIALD
T2 sequence (Q9UBE0 1-346 partner): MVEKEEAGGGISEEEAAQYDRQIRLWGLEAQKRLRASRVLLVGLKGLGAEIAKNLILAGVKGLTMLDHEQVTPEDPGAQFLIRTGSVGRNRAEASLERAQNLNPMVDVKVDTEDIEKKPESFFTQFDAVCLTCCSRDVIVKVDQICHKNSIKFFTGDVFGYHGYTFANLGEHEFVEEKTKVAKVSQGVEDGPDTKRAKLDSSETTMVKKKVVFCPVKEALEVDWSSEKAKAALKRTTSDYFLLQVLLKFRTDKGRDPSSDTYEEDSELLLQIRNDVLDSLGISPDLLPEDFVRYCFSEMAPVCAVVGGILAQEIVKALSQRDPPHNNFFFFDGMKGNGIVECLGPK
Briefly: SUMO E1 inhibition: UBC9-SUMO1 conjugation by SDS gel electrophoresis. Format: biochemical. Particulars: read-out: SUMO E1 percent inhibition of adduct formation; for inhibition at 25 µM: 25 uM compound; for inhibition at 10 µM: 10 uM compound; for inhibition at 1 µM: 1 uM compound; for inhibition at 27 µM: 27 uM compound; for inhibition at 9 µM: 9 uM compound, 15 min preincubation. The method, then:
as §1, §2

[1] abbreviates: 55 min preincubation of E1 with compound.

In patent publication US12398151B2, “Sumo inhibitor compounds and uses thereof” (SUVALENT THERAPEUTICS, INC., priority 2019, dated 2025) one finds inhibition data, which are given here for 41 compounds.

One may read the inhibition as the change of the read-out against control, counted positive when it falls.

Where two headings read alike, the source gives them in different places. Where only a bound is given, the exact number is not on record here.

For the compound `C=CC(=O)N1CCc2ccccc2[C@@H]1c1ccccc1` (stereo in doubt) [Compound 10], the inhibition at 25 µM on Atg7 and at SUMO E1 (60 min preincubation) was below 1% throughout.

Regarding `C=CC(=O)N1Cc2ccccc2[C@@H](c2ccccc2)C1` (stereo in doubt) [Compound 11], on Atg7, the inhibition at 25 µM was below 1%. For the same compound, the inhibition at 10 µM at SUMO E1 (60 min preincubation) amounted to 90%.

For the compound `C=CC(=O)N1CCc2c(Br)cccc2C1` [Compound 1], the results for the inhibition at 25 µM at Atg7 and at SUMO E1 (setting [1]) were below 1% and 50%, respectively.

As for `C=CC(=O)N1CCc2ccc(Br)cc2C1` [Compound 2], the results for the inhibition at 25 µM on Atg7 and on SUMO E1 (setting [1]) were below 1% and 50%, respectively.

For the compound `C=CC(=O)N1CCc2cc(Br)ccc2C1` [Compound 3], the values for the inhibition at 25 µM on Atg7 and at SUMO E1 (60 min preincubation) were below 1% and 70%, respectively.

Turning to `C=CC(=O)N1CCc2cc(Br)ccc21` [Compound 4], the inhibition at 25 µM is below 1% on Atg7 and 10% on SUMO E1 (30 min preincubation).

`C=CC(=O)N1CCc2ncncc2C1` [Compound 5]: the inhibition at 25 µM on Atg7 was below 1%; on SUMO E1 (30 min preincubation), 10%.

Consider `C=CC(=O)N1CCc2cc(-c3ccccc3)ccc2C1` [Compound 6], for which the inhibition at 25 µM at Atg7 and on SUMO E1 (30 min preincubation) was below 1% throughout.

On to `C=CC(=O)N1CCc2cc(Cc3ccccc3)ccc2C1` [Compound 7], for which the figures for the inhibition at 25 µM at Atg7 and at SUMO E1 (30 min preincubation) were below 1% and 20%, respectively.

Consider `C=CC(=O)N1CCc2cc(Nc3ccccc3)ccc2C1` [Compound 8], for which the inhibition at 25 µM on Atg7 and at SUMO E1 (60 min preincubation) was below 1% each time.

On to `C=CC(=O)N1Cc2ccc(Br)cc2C1` [Compound 9], for which the inhibition at 25 µM on Atg7 and at SUMO E1 (60 min preincubation) was below 1% throughout.

`C=CC(=O)N1CCC2CCCCC2C1` (stereo not drawn) [Compound 12]: the inhibition at 25 µM on Atg7 and on SUMO E1 (60 min preincubation) was below 1% each time.

In the case of `C=CC(=O)N1Cc2ccccc2C1` [Compound 13], the inhibition at 25 µM at Atg7 and on SUMO E1 (60 min preincubation) was below 1% throughout.

For `C=CC(=O)N1Cc2ccc(N)cc2C1` [Compound 14], the inhibition at 25 µM on Atg7 and on SUMO E1 (60 min preincubation) was below 1% throughout.

Regarding `C=CC(=O)N1Cc2ccc(NC(=O)c3ccc(F)cc3)cc2C1` [Compound 15], the inhibition at 25 µM on Atg7 and at SUMO E1 (60 min preincubation) was below 1% in each case.

Consider `C=CC(=O)N1Cc2ccc(NC(=O)c3cccnc3)cc2C1` [Compound 16], for which the inhibition at 25 µM at Atg7 was below 1%; on SUMO E1 (60 min preincubation), 20%.

Take `C=CC(=O)N1Cc2ccc(NS(=O)(=O)c3ccccc3)cc2C1` [Compound 17]: the inhibition at 25 µM was below 1% at Atg7 and 20% on SUMO E1 (60 min preincubation).

For `C=CC(=O)N1CCc2cc(CC3CCOCC3)ccc2C1` [Compound 18], the inhibition at 25 µM at Atg7 is 95%; at SUMO E1 (60 min preincubation), below 1%.

As to `C=CC(=O)N1CCc2cc(CC(C)C)ccc2C1` [Compound 19], the inhibition at 25 µM at Atg7 was below 1%; at SUMO E1 (60 min preincubation), 40%.

For the compound `C=CC(=O)N1CCCc2cc(Br)ccc21` [Compound 20], the inhibition at 25 µM on Atg7 and on SUMO E1 (60 min preincubation) was below 1% throughout.

For `C=CC(=O)N1CCc2cccc(Br)c2C1` [Compound 21], the inhibition at 25 µM at Atg7 and at SUMO E1 (60 min preincubation) was below 1% each time.

`C=CC(=O)N1CCc2cc(Cc3ccc(OC)cc3)ccc2C1` [Compound 23]: the inhibition at 25 µM at Atg7 and on SUMO E1 (60 min preincubation) was below 1% throughout.

Regarding `C=CC(=O)N1CCc2cc(Oc3ccccc3)ccc2C1` [Compound 24], the inhibition at 25 µM at Atg7 was below 1%; on SUMO E1 (60 min preincubation), 50%.

Take `CCC(=O)Nc1ccc2cc(Br)ccc2c1` [Compound 25]: the inhibition at 25 µM at Atg7 and on SUMO E1 (60 min preincubation) was below 1% in each case.

On to `C=CC(=O)N1Cc2ccccc2C[C@H]1c1ccccc1` [Compound 26], for which the inhibition at 25 µM at Atg7 is below 1%; on SUMO E1 (60 min preincubation) it was 10%.

As to `C=CC(=O)N1Cc2ccccc2[C@@H](C(=O)OC)C1` [Compound 27], the inhibition at 25 µM at Atg7 and at SUMO E1 (60 min preincubation) was below 1% in each case.

Consider `C=CC(=O)N1Cc2ccccc2[C@@H](c2ccccc2)C1` [Compound 28], for which the inhibition at 25 µM on SUMO E1 (60 min preincubation) was below 1%.

As to `C=CC(=O)N1Cc2ccc(Br)cc2[C@@H](c2ccccc2)C1` [Compound 29], the inhibition at 25 µM on Atg7 is below 1%; at SUMO E1 (60 min preincubation) it was 90%.

As to `C=CC(=O)N1Cc2ccc(Oc3ccccc3)cc2[C@@H](c2ccccc2)C1` [Compound 30], the inhibition at 25 µM at Atg7 and on SUMO E1 (60 min preincubation) was below 1% in each case.

Regarding `CCOC(=O)/C=C/CN1Cc2ccccc2[C@@H](c2ccccc2)C1` [Compound 33], at SUMO E1 (60 min preincubation), the inhibition at 25 µM was below 1%.

Take `C=CC(=O)Oc1cccc([C@H]2CN(C(=O)C=C)Cc3ccccc32)c1` [Compound 44]: on SUMO E1 (18 uM compound, 30 min preincubation), the inhibition at 18 µM amounted to 50%.

Take `C=CC(=O)Oc1cccc([C@H]2CN(C(C)=O)Cc3ccccc32)c1` [Compound 50]: on SUMO E1 (60 min preincubation), the inhibition at 10 µM stood at 50%.

For `C=CC(=O)N1Cc2sc(C)cc2[C@@H](c2ccccc2)C1` [Compound 81], the inhibition at 10 µM on SUMO E1 (30 min preincubation) stood at 30%.

Take `C=CC(=O)N1Cc2sc(Cl)cc2[C@@H](C2CCCCC2)C1` [Compound 124]: the inhibition at 1 µM on SUMO E1 (30 min preincubation) was 100%.

Consider `C=CC(=O)N1Cc2sc(Cl)cc2[C@@H](C2CCCC2)C1` [Compound 125], for which the inhibition at 27 µM on SUMO E1 (30 min preincubation) amounted to 100%.

On to `C=CC(=O)N1Cc2sc(Cl)cc2[C@@H](Cc2ccccc2)C1` [Compound 126], for which the inhibition at 27 µM on SUMO E1 (20 min preincubation) came to 40%.

For the compound `Cc1ccccc1[C@H]1CN(C(=O)/C=C/CBr)Cc2sc(Cl)cc21` [Compound 131], the inhibition at 9 µM on SUMO E1 is below 1%.

Take `C=CC(=O)N1Cc2sc(Cl)cc2[C@@H](c2ccccc2CC)C1` [Compound 144]: on SUMO E1 (30 min preincubation), the inhibition at 27 µM stood at 95%.

For `C=CC(=O)N1Cc2sc(Cl)cc2[C@@H](c2cccc(C)c2C)C1` [Compound 149], the inhibition at 1 µM on SUMO E1 (30 min preincubation) amounted to 90%.

`C=CC(=O)N1Cc2sc(Cl)cc2[C@@H](c2ccccc2-c2ccccc2C(F)(F)F)C1` [Compound 156]: the inhibition at 9 µM at SUMO E1 is below 1%.

In the case of `C=CC(=O)N1Cc2sc(Cl)cc2[C@@H](c2ccccc2Br)C1` [Compound 158], at SUMO E1 (16 uM compound, 45 min preincubation), the inhibition at 16 µM is below 1%.
